Experiments:
Assay type in all cases: physicochemical
[1] = Thermal gravimetric analysis (TGA) of water/solvent content; settings: heated at 10° C./min from 25° C., dry nitrogen purge
Protocol: Approximately 1-5 mg of sample was added to a tared Platinum cup which was then placed in the weighting position of a Perkin-Elmer Pyris 1 TGA analyzer. The furnace was raised and the starting weight of the sample was recorded. The heating program was then started. The sample was heated at a rate of 10° C./min, starting at 25° C. and ending at 90-300° C., depending on where a constant temperature could be attained. The sample was purged with dry nitrogen gas during analysis.
A sample of crystal modification IV was analyzed with XRPD and the water content was checked with TGA. The weight loss for crystal modification IV was initially slow, but accelerated at about 50° C. and was finalized at about 80° C. A weight loss of 2.7% w/w was observed.
A sample of crystal modification I was analyzed with XRPD and the water content was checked with TGA. […] A weight loss of 0.99% w/w was observed.
The solvent content of a sample of EtOH-1 was analyzed with TGA.

[2] = Relative thermodynamic stability of crystal modifications; settings: normal conditions (21° C., 10-30% relative humidity)
[3] = Storage stability of the crystal modification (XRPD)
Protocol: Dry samples were lightly ground in an agate mortar, if needed, and were then smeared out on a sample holder. Slurry samples were added to the sample holder as wet and were analyzed both wet and dry. XRPD data were collected on a cut Silicon Zero Background Holder (ZBH) or on a Porous Alumina Filter Sample Holder, using a PANalytical X'Pert Pro diffractometer, equipped with an X'celerator or a PIXcel detector. The sample was spun during analysis and Cu-radiation was used. The following experimental settings were used:
A batch of crystal modification IV was stored in a closed glass vial and kept at 20° C. and between 20 and 60% RH for 17 months.

[4] = Dynamic Vapor Sorption (DVS) analysis; settings: after drying with dry nitrogen, two sorption-desorption cycles, 0 to 10% RH
Protocol: Approximately 15-20 mg of the sample was weighed into a quartz receptacle, which was then released of static electricity by exposing it to a radioactive source. The quartz receptacle was then positioned in a Surface Measurements System Ltd DVS Advantage instrument. The sample was dried with dry nitrogen gas until a dm/dt below 0.002% per minute was reached. The instrument was running in dm/dt-mode using a dm/dt window of 5 minutes, a minimum stage time of 10 minutes and a maximum stage time of 360 minutes. The sample was then subjected to two consecutive sorption-desorption cycles, using d/m/dt-mode parameters above, and each cycle running from 0-95-0% relative humidity (% RH). One cycle consisted of 20 steps, those between 0-90% RH were taken in 10% RH each.
A sample of crystal modification IV was weighed into the quartz scale pan of a Scientific Instruments Dynamic Vapor Sorption instrument. The sample was released of static electricity by moving a radioactive isotope over it and was then put into the instrument. The sample was dried by flushing dry nitrogen gas until the weight was constant and then two consecutive sorption-desorption cycles were run. Crystal modification IV absorbs approximately 2.45% water between 0 and 10% RH, and an additional 0.36 to 0.37% water between 10 and 60% RH. […]

Row | SMILES | TGA weight loss [1] | thermodynamic stability compared with crystal modification I and other crystal modifications of elobixibat [2] | crystalline form by XRPD after storage ([3]; closed glass vial, 20° C., between 20 and 60% RH, 17 months) | time of storage for which found stable ([3]; such as under ambient, open conditions) [months] | water absorbed between 0 and 10% RH [4]
1 | CCCCC1(CCCC)CN(c2ccccc2)c2cc(SC)c(OCC(=O)N[C@@H](C(=O)NCC(=O)O)c3ccccc3)cc2S(=O)(=O)C1 [EtOH-1, N-{(2R)-2-[({[3,3-dibutyl-7-(methyl-thio)-1,1-dioxido-5-phenyl-2,3,4,5-tetrahydro-1,5-benzothiazepin-8-yl]oxy}acetyl)amino]-2-phenylethanolyl}glycine] | approximately 6 % w/w | – | – | – | –
2 | CCCCC1(CCCC)CN(c2ccccc2)c2cc(SC)c(OCC(=O)N[C@@H](C(=O)NCC(=O)O)c3ccccc3)cc2S(=O)(=O)C1 [crystal modification IV, N-{(2R)-2-[({[3,3-dibutyl-7-(methyl-thio)-1,1-dioxido-5-phenyl-2,3,4,5-tetrahydro-1,5-benzothiazepin-8-yl]oxy}acetyl)amino]-2-phenylethanolyl}glycine] | 2.7 % w/w | more thermodynamically stable | unchanged | ≥ 17 | approximately 2.45%
3 | CCCCC1(CCCC)CN(c2ccccc2)c2cc(SC)c(OCC(=O)N[C@@H](C(=O)NCC(=O)O)c3ccccc3)cc2S(=O)(=O)C1 [crystal modification I, N-{(2R)-2-[({[3,3-dibutyl-7-(methyl-thio)-1,1-dioxido-5-phenyl-2,3,4,5-tetrahydro-1,5-benzothiazepin-8-yl]oxy}acetyl)amino]-2-phenylethanolyl}glycine] | 0.99 % w/w | – | – | – | approximately 0.66%
